# Laboratory results published in US20250230165A1, “HETEROCYCLIC COMPOUNDS FOR USE IN THE TREATMENT OF CANCER” (ARTIOS PHARMA LIMITED, priority 2021, published 2025).
# Biological target: T1, Human Polθ polymerase domain (aa1820-2590) (Homo sapiens, UniProt O75417)
# T1 construct: Human Polθ polymerase domain (aa1820-2590) was expressed in E. coli; made in house; host or cells: E. coli
# T1 sequence (O75417 1820-2590): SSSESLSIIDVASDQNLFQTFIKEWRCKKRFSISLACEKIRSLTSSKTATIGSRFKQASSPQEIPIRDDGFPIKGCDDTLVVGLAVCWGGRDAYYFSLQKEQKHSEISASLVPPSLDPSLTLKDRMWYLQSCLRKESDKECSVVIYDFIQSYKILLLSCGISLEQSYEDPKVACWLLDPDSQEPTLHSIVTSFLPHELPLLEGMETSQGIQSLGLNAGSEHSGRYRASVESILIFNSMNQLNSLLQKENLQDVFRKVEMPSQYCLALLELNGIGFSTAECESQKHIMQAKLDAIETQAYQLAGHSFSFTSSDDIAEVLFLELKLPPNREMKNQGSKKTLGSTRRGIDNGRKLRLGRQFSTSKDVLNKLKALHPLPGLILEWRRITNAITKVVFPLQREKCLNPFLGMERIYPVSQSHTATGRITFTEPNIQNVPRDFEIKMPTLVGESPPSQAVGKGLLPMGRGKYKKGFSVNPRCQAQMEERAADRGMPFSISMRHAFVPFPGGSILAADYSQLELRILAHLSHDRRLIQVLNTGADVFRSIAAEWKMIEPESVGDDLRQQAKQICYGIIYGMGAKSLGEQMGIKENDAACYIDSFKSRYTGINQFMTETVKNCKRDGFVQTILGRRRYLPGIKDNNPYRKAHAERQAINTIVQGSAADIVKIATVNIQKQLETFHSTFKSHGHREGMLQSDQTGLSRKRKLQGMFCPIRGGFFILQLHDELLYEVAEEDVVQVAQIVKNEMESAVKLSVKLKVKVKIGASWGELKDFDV
# Experiment: Polθ Polymerase Domain Kinact/KI Assay (PicoGreen)
# Type: biochemical
# Conditions: 0.8 nM Polθ, 100 nM DNA substrate, kobs vs [I] fit for 2-step covalent inhibitor
# Summary of the method: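 PicoGreen fluorescence read-out of primer extension; progress curves per inhibitor concentration fitted for kobs, then kobs vs [I] fitted to a two-step covalent model to give Kinact and KI. Conditions: 0.8 nM enzyme, 100 nM DNA substrate, […].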
row,Kinact/Kl [M⁻¹ s⁻¹],SMILES
1,2.35e+06,"C=CC(=O)N1CCN2C(=O)[C@H](C)N(CCN3C[C@H]4CC(=O)N(c5cc(C(F)(F)F)cc(C)n5)[C@@H]4C(=O)N(C)c4cccc(F)c43)C[C@@H]2C1 (single isomer, unassigned) [Example 108]"
2,1.89e+06,"C=CC(=O)N1CC2(CN(CCN3C[C@H]4CC(=O)N(c5cc(C(F)(F)F)cc(C)n5)[C@@H]4C(=O)N(C)c4cccc(Cl)c43)CC2C#N)C1 (single isomer, unassigned) [Example 117a]"
3,3e+06,"C=CC(=O)N1CC2(CN(CCN3C[C@H]4CC(=O)N(c5cc(C(F)(F)F)cc(C)n5)[C@@H]4C(=O)N(C)c4cccc(C)c43)CC2C#N)C1 (single isomer, unassigned) [Example 118a]"
4,4.57e+06,"C=CC(=O)N1CC2(CN(CCN3C[C@H]4CC(=O)N(c5cc(C(F)(F)F)cc(C)n5)[C@@H]4C(=O)N(C)c4cccc(C)c43)CC2(C)C#N)C1 (single isomer, unassigned) [Example 119a]"
5,22000,"C=CC(=O)N1CCN2C[C@@H](CN3C[C@H]4CC(=O)N(c5cc(C(F)(F)F)cc(C)n5)[C@@H]4C(=O)N(C)c4cccc(F)c43)N(C)C[C@H]2C1 (single isomer, unassigned) [Example 140a]"
6,230000,"C=CC(=O)N1CCN2C[C@@H](CN3C[C@H]4CC(=O)N(c5cc(C(F)(F)F)cc(C)n5)[C@@H]4C(=O)N(C)c4cccc(F)c43)N(C)CC2C1 (single isomer, unassigned) [Example 140b]"
7,200000,"C=CC(=O)N1CCCC1c1ccc(CN2C[C@H]3CC(=O)N(c4cc(C(F)(F)F)cc(C)n4)[C@@H]3C(=O)N(C)c3cccc(F)c32)cc1 (single isomer, unassigned) [Example 141a]"
8,1.75e+06,"C=CC(=O)N1CCn2cc(CN3C[C@H]4CC(=O)N(c5cc(C(F)(F)F)cc(C)n5)[C@@H]4C(=O)N(C)c4cccc(Cl)c43)nc2C1C (single isomer, unassigned) [Example 142a]"
9,1e+06,"C=CC(=O)N1Cc2nc(CN3C[C@H]4CC(=O)N(c5cc(C(F)(F)F)cc(C)n5)[C@@H]4C(=O)N(C)c4cccc(Cl)c43)cn2CC1C (single isomer, unassigned) [Example 143a]"
10,1.06e+06,"C=CC(=O)N1Cc2nc(CN3C[C@H]4CC(=O)N(c5cc(C(F)(F)F)cc(C)n5)[C@@H]4C(=O)Nc4cccc(Cl)c43)cn2CC1C (single isomer, unassigned) [Example 144a]"
11,4.36e+06,"C=CC(=O)N1Cc2nc(CN3C[C@H]4CC(=O)N(c5cc(C(F)(F)F)cc(C)n5)[C@@H]4C(=O)N(C)c4cccc(C)c43)cn2CC1C (single isomer, unassigned) [Example 206a]"
12,320000,"C=CC(=O)N1CC(N2CCCC(CN3C[C@H]4CC(=O)N(c5cc(C(F)(F)F)cc(C)n5)[C@@H]4C(=O)N(C)c4cccc(F)c43)C2)C1 (single isomer, unassigned) [Example 225a]"
13,230000,"C=CC(=O)N1CC(N2CC[C@@H](CN3C[C@H]4CC(=O)N(c5cc(C(F)(F)F)cc(C)n5)[C@@H]4C(=O)N(C)c4cccc(Cl)c43)[C@H](C#N)C2)C1 (single isomer, unassigned) [Example 226a]"
14,870000,"C=CC(=O)N1CC(N2CC[C@H](CN3C[C@H]4CC(=O)N(c5cc(C(F)(F)F)cc(C)n5)[C@@H]4C(=O)N(C)c4cccc(Cl)c43)[C@@H](C#N)C2)C1 (single isomer, unassigned) [Example 226b]"
15,230000,"C=CC(=O)N1CC(N2CC[C@H](CN3C[C@H]4CC(=O)N(c5cc(C(F)(F)F)cc(C)n5)[C@@H]4C(=O)N(C)c4cccc(Cl)c43)[C@H](C#N)C2)C1 (single isomer, unassigned) [Example 227a]"
16,1.07e+06,"C=CC(=O)N1CC(N2CC[C@@H](CN3C[C@H]4CC(=O)N(c5cc(C(F)(F)F)cc(C)n5)[C@@H]4C(=O)N(C)c4cccc(Cl)c43)[C@@H](C#N)C2)C1 (single isomer, unassigned) [Example 227b]"
17,1.01e+06,"C=CC(=O)N1Cc2cc(CN3C[C@H]4CC(=O)N(c5cc(C(F)(F)F)cc(C)n5)[C@@H]4C(=O)N(C)c4cccc(Cl)c43)cnc2C1CO (single isomer, unassigned) [Example 230]"

row,Kinact/Kl [M⁻¹ s⁻¹],SMILES
1,1.89e+06,"C=CC(=O)N1Cc2cc(CN3C[C@H]4CC(=O)N(c5cc(C(F)(F)F)cc(C)n5)[C@@H]4C(=O)N(C)c4cccc(C)c43)cnc2C1CO (single isomer, unassigned) [Example 232]"
2,270000,"C=CC(=O)N1Cc2cc(CN3C[C@H]4CC(=O)N(c5cc(C(F)(F)F)cc(C)n5)[C@@H]4C(=O)N(C)c4cccc(C)c43)cnc2C1COC (single isomer, unassigned) [Example 235]"
3,270000,"C=CC(=O)N1Cc2cc(CN3C[C@H]4CC(=O)N(c5cc(C(F)(F)F)cc(C)n5)[C@@H]4C(=O)N(C)c4cccc(Cl)c43)cnc2C1COC (single isomer, unassigned) [Example 237]"
4,1.19e+06,"C=CC(=O)N1Cc2cc(CN3C[C@H]4CC(=O)N(c5cc(C(F)(F)F)cc(C)n5)[C@@H]4C(=O)N(C)c4cccc(Cl)c43)ccc2C1CC#N (single isomer, unassigned) [Example 287b]"
5,630000,"C=CC(=O)N1Cc2ccc(CN3C[C@H]4CC(=O)N(c5cc(C(F)(F)F)cc(C)n5)[C@@H]4C(=O)N(C)c4cccc(Cl)c43)cc2C1CC#N (single isomer, unassigned) [Example 288a]"
6,1.26e+06,"C=CC(=O)N1Cc2ccc(CN3C[C@H]4CC(=O)N(c5cc(C(F)(F)F)cc(C)n5)[C@@H]4C(=O)N(C)c4cccc(Cl)c43)nc2C1CC#N (single isomer, unassigned) [Example 289a]"
7,1.3e+06,"C=CC(=O)N1Cc2nc(CN3C[C@H]4CC(=O)N(c5cc(C(F)(F)F)cc(C)n5)[C@@H]4C(=O)N(C)c4cccc(Cl)c43)ccc2C1CC#N (single isomer, unassigned) [Example 290b]"
8,1.17e+06,"C=CC(=O)N1Cc2ncc(CN3C[C@H]4CC(=O)N(c5cc(C(F)(F)F)cc(C)n5)[C@@H]4C(=O)N(C)c4cccc(Cl)c43)cc2C1CC#N (single isomer, unassigned) [Example 291a]"
9,2.52e+06,"C=CC(=O)N1Cc2cc(CN3C[C@H]4CC(=O)N(c5cc(C(F)(F)F)cc(C)n5)[C@@H]4C(=O)N(C)c4cccc(Cl)c43)cnc2C1CC#N (single isomer, unassigned) [Example 292b]"
10,1.28e+06,"C=CC(=O)N1Cc2nc(CN3C[C@H]4CC(=O)N(c5cc(C(F)(F)F)cc(C)n5)[C@@H]4C(=O)N(C)c4cccc(Cl)c43)cn2CC1C(F)(F)F (single isomer, unassigned) [Example 293b]"
11,1.61e+06,"C=CC(=O)N1Cc2cc(CN3C[C@H]4CC(=O)N(c5cc(C(F)(F)F)cc(C)n5)[C@@H]4C(=O)N(C)c4cccc(Cl)c43)nn2CC1C (single isomer, unassigned) [Example 294a]"
12,1.46e+06,"Cc1cc(C(F)(F)F)cc(N2C(=O)C[C@@H]3CN(Cc4ccc5c(c4)CN(C(=O)/C=C/CN(C)C)C5CC#N)c4c(Cl)cccc4N(C)C(=O)[C@H]32)n1 (single isomer, unassigned) [Example 310b]"
13,1.12e+06,"Cc1cc(C(F)(F)F)cc(N2C(=O)C[C@@H]3CN(Cc4ccc5c(c4)C(CC#N)N(C(=O)/C=C/CN(C)C)C5)c4c(Cl)cccc4N(C)C(=O)[C@H]32)n1 (single isomer, unassigned) [Example 311a]"
14,1.25e+06,"C=CC(=O)N1C[C@H](F)[C@@H](n2cc(CN3C[C@H]4CC(=O)N(c5cc(C(F)(F)F)cc(C)n5)[C@@H]4C(=O)N(C)c4cccc(C)c43)cn2)C1 (single isomer, unassigned) [Example 325a]"
15,870000,"C=CC(=O)N1C[C@@H](F)[C@H](n2cc(CN3C[C@H]4CC(=O)N(c5cc(C(F)(F)F)cc(C)n5)[C@@H]4C(=O)N(C)c4cccc(C)c43)cn2)C1 (single isomer, unassigned) [Example 325b]"
16,980000,"C=CC(=O)N1C[C@@H](n2cc(CN3C[C@H]4CC(=O)N(c5cc(C(F)(F)F)cc(C)n5)[C@@H]4C(=O)N(C)c4cccc(C)c43)cn2)[C@@H](F)C1 (single isomer, unassigned) [Example 325c]"
17,1.77e+06,"C=CC(=O)N1C[C@@H](F)[C@@H](n2cc(CN3C[C@H]4CC(=O)N(c5cc(C(F)(F)F)cc(C)n5)[C@@H]4C(=O)N(C)c4cccc(C)c43)cn2)C1 (single isomer, unassigned) [Example 325d]"
